From patent publication US10888720B2, “Gentiopicroside free gentiana extract” (DSM IP ASSETS B.V., priority 2015, dated 2021)

Tests used:
[1] = system: Normal human fibroblasts (NHF); test: Hyaluronan production (Hyaluronan Assay Kit); type: cell-based; settings: TGFbeta1 10 ng/ml, positive control
Procedure: Gentiana extract (Gentiana acaulis/Gentiana septemfida, 25/75 m/m) was used. Normal human fibroblasts (NHF) P2+1 were seeded at 5000 cell/well in 96 well cell culture plates (Nunclon) in MEM 10% FCS (Pan Biotech). After three days of growth, Gentiana extract solution was added in medium without FCS and incubated the cells for an additional three days. Secreted hyaluronan in the growth medium was measured using a Hyaluronan Assay Kit (K-1200, Echelon, Salt Lake City, Utah).

DNA = settings: K. Mustafayeva et al., J. Nat. Prod. 2010, 73, 99-103; cited from earlier work

TGFbeta1: TGFbeta1 (10 ng/ml), served as positive control for hyaluronan production
stimulation of hyaluronan production compared to untreated cells [1]: 45.6±1.1%

C=C[C@@H]1C2=CCOC(=O)C2=CO[C@H]1O[C@@H]1O[C@H](CO)[C@@H](O)[C@H](O)[C@H]1O [gentiopicroside]
genotoxic effects reported (DNA): DNA damaging, mutagenic, and clastogenic effects
